Experimental data from patent US10206930B2, “Methods for treating T-cell acute lymphoblastic leukemia” (New York University, priority 2015, dated 2019).

Experiments:
T-ALL cells = assay: IC50 of GSKJ4 on T-ALL cell proliferation, normalized to control inhibitor GSKJ5; assay type: cell-based; conditions: Homo sapiens, 120 h, 5 days treatment, FIG. 11A CUTLL1, read-out: IC50 determined for T-ALL cells
[1] = tested on: H3K27me3 levels at repressed genes; assay: H3K27me3 ChIP at repressed genes upon GSKJ4 treatment; assay type: cell-based, human; conditions: 24 to 72 hours post-GSKJ4 treatment
Experimental: ChIP experiments were performed as described previously (Ntziachristos et al., “Genetic Inactivation of the Polycomb Repressive Complex 2 in T Cell Acute Lymphoblastic Leukemia,” Nature Med. 18:298-303 (2012), which is hereby incorporated by reference in its entirety). In brief, for the analysis of histone marks, the cells were fixed with 1% formaldehyde for 10 minutes at 25° C. and lysed them by the addition of nucleus incubation buffer (15 mM Tris, pH 7.5, 60 mM KCl, 150 mM NaCl, 15 mM MgCl2, 1 mM CaCl2, 250 mM sucrose and 0.3% NP-40) and incubation at 4° C. for 10 minutes. […]
First, enriched ChIP-seq windows were identified separately for each of the two samples under comparison using a window-based approach and the binomial probability distribution to compare signal reads with control reads in each window. Subsequently, for each genomic window enriched in at least one of the two samples, the total number of reads was determined, and the window read counts were normalized using quantile normalization across biological replicates and samples before comparison. […] This comparison was performed independently at different H3K27me3 read density levels to control for artificially high fold changes due to low read counts in the denominator. […]

[2] = tested on: myeloid leukaemia cells, stromal cells and haematopoietic progenitor cells; assay: Growth of non-T-ALL control cells under GSKJ4; assay type: cell-based; conditions: FIGS. 12L-12M
[3] = tested on: human T-ALL cells (CUTLL1); assay: Genome-wide expression analysis (RNA-seq) of treated T-ALL cells; assay type: cell-based
Experimental: Whole RNA was extracted from 1-5×10^6 T-ALL cells or primary cells using the RNeasy kit (QIAGEN) according to the manufacturer's protocol. Poly(A)^+ RNA was enriched using magnetic oligo(dT)-containing beads (Invitrogen). cDNA was prepared and strand-specific libraries were constructed using the dUTP method as described previously (Zhong et al., “High-Throughput Illumina Strand-Specific RNA Sequencing Library Preparation,” Cold Spring Harb. Protoc. 2011:940-949 (2011), which is hereby incorporated by reference in its entirety). Libraries were sequenced on the IIlumina HiSeq 2000 using the 50-base-pair single-read method.
Differential gene expression analysis was performed for each matched knockdown versus control pair, separately in each biological or technical replicate in each of two cell lines (CUTLL1 and CEM). Three types of comparisons were tested: (1) JMJD3 knockdown versus Renilla; (2) JMJD3 knockdown versus UTX knockdown; and (3) UTX knockdown versus Renilla. DEGseq44 was used to analyze (a) matched knockdown—Renilla replicates in separate DEGseq runs and (b) all replicates on a combined DEGexp run. For the mouse (Utx knockout) samples, spleen and bone marrow from a wild-type male (referred to as animal #9), as well as spleen from a wild-type female (animal #10), were compared with spleen and bone marrow from a knockout male (#23) and spleen from another knockout male (#27) (see also the GEO accession G5E56696). For illustration, scatter plots (FIG. 4D and FIGS. 5G-I) were created using values obtained from DEGseq analysis of merged biological and/or technical replicates. Gene RNA-seq FPKM values were computed using GenomicTools (Tsirigos et al., “GenomicTools: A Computational Platform for Developing High-Throughput Analytics in Genomics,” Bioinformatics 28:282-283 (2012), which is hereby incorporated by reference in its entirety). The P-value cutoff for differential expression was set at 1×10^−5, with the minimum absolute log2 fold change set at 0.5.

[4] = tested on: human T-ALL cell lines and primary human T-ALL cells; assay: Cell growth, annexin V apoptosis and BrdU cell cycle analysis of T-ALL cells; assay type: cell-based; design: dose or concentration left out as unconfirmed
Description: Mice, Cell Culture and Primary Cell Samples. The Jmjd3 (Satoh et al., “The Jmjd3-Irf4 Axis Regulates M2 Macrophage Polarization and Host Responses Against Helminth Infection,” Nature Immunol. 11:936-944 (2010), which is hereby incorporated in its entirety) and Utx (Welstead et al., “X-linked H3K27me3 Demethylase Utx is Required for Embryonic Development in a Sex-Specific Manner,” Proc. Natl. Acad. Sci. USA 109:13004-13009 (2012), which is hereby incorporated by reference in its entirety) knockout mouse models, as well as the corresponding genotyping strategy, have been described previously. All animals used in this study were treated according to IACU protocols. The human T-ALL cell lines CUTLL1 (Palomero et al., “CUTLL1, a Novel Human T-Cell Lymphoma Cell Line With t(7; 9) Rearrangement, Aberrant NOTCH1 Activation and High Sensitivity to c-Secretase Inhibitors,” Leukemia 20:1279-1287 (2006), which is hereby incorporated by reference in its entirety), P12-Ichikawa, Loucy, DND41, CEM and Jurkat and the myeloid leukaemia cell lines (THP-1 and HL-60), as well as the mouse T-ALL line (720) (Sharma et al., “Notch1 Contributes to Mouse T-cell Leukemia by Directly Inducing the Expression of c-myc,” Mol. Cell. Biol. 26:8022-8031 (2006), which is hereby incorporated by reference in its entirety), were cultured in RPMI 1640 medium supplemented with 20% FBS and penicillin and streptomycin. […] Primary human samples were collected by collaborating institutions with informed consent and were analyzed under the supervision of the Columbia University Medical Center and St. Jude Children's Research Hospital Institutional Review Boards. […]
T-ALL cells were infected twice with shRNA-expressing retroviruses and selected using puromycin. […] For the cell cycle analysis, 5-bromodeoxyuridine (BrdU; 10 mM) was added for a 1 hour pulse, and incorporation into DNA was determined by using the BrdU Flow Kit (BD Biosciences). Apoptosis was studied by quantification of annexin V staining using the BD Biosciences kit and flow cytometry according to standard protocols provided by the manufacturer. […]

human T-ALL cells = assay: shRNA knockdown: loss of representation studies and apoptosis assays; assay type: cell-based; conditions: shRNA treatment
Experimental: T-ALL cells were infected twice with shRNA-expressing retroviruses and selected using puromycin. Expression studies took place at different time points during the selection period, and the results are presented from day 4 during selection. […] For the cell cycle analysis, 5-bromodeoxyuridine (BrdU; 10 mM) was added for a 1 hour pulse, and incorporation into DNA was determined by using the BrdU Flow Kit (BD Biosciences). Apoptosis was studied by quantification of annexin V staining using the BD Biosciences kit and flow cytometry according to standard protocols provided by the manufacturer. Doxycycline was used at […] final concentration.
Protein-G-coated magnetic beads were purchased from Invitrogen. […] Reporter fluorescence was used (as determined by flow cytometry) for the quantification of shRNA.

[5] = tested on: T-ALL cell lines (CUTLL1, CEM and P12); assay: Subcutaneous or intravenous xenograft of shRNA-treated T-ALL cell lines; assay type: in vivo, mouse; conditions: immunocompromised NRG mice; compared with shRenilla-treated cell lines
Experimental: Studies were conducted as previously published (Ntziachristos et al., “Genetic Inactivation of the Polycomb Repressive Complex 2 in T Cell Acute Lymphoblastic Leukemia,” Nature Med. 18:298-303 (2012), which is hereby incorporated by reference in its entirety). In both cases, CUTLL1, P12 or CEM T-ALL cells expressing luciferase (FUW-LUC) and the corresponding shRNA (shJMJD3, shUTX or shRenilla) were used. For the intravenous studies, 1×10^6 cells were injected retroorbitally into sublethally irradiated female NRG (NOD Rag1^−/−Il2rg^−/−) mice. For subcutaneous studies, 1×10^6 cells were mixed with an equal volume of BD Matrigel basement membrane and injected into the flanks of female NOD-SCID mice. In both cases, cell growth was monitored every 2 days using IVIS (Caliper, PerkinElmer).

[6] = GSKJ4 vs control inhibitor GSKJ5

## CCOC(=O)CCNc1cc(N2CCc3ccccc3CC2)nc(-c2ccccn2)n1 [GSKJ4, ethyl 3-((6-(4,5-dihydro-1H-benzo[d]azepin-3(2H)-yl)-2-(pyridin-2-yl)pyrimidin-4-yl)amino)propanoate]
T-ALL cells
  IC50: 2000 nM
[1]
  H3K27me3 levels at repressed genes: increase in the H3K27me3 levels
[2]
  growth of myeloid leukaemia cells, stromal cells and haematopoietic progenitor cells: unaffected
[3]; CUTLL1, 72 hours of treatment with GSKJ4
  number of downregulated genes: 486 genes
[4]; [6]
  apoptosis (annexin V): increased apoptosis
  cell cycle effect: cell cycle arrest
[4]; GSKJ4 vs control inhibitor GSKJ5, 24-72 hours
  growth of human T-ALL cell lines and primary human T-ALL cells: significantly affected the growth

B1: shUTX: shRNA against UTX, SEQ ID NO: 5 (nucleic acid)
chain: ACACAAGGTAGTCTACAGAATATAGTGAAGCCACAGATGTATATTCTGTAGACTACCTTGTGG
[3]; shRNA knockdown
  number of significantly downregulated protein-coding genes: 46 genes
  number of significantly upregulated protein-coding genes: 189 genes
Human T-ALL cells
  viability of leukaemic cells: not

B2: shJMJD3A: shRNA against JMJD3, SEQ ID NO: 3 (nucleic acid)
chain: CAGGGAAGTTTCGAGAAGTCCTATAGTGAAGCCACAGATGTATAGGACTCTCGAACTTCCCTT
[5]
  in vivo growth of transplanted T-ALL cells: significant growth disadvantage

B3: shJMJD3B: shRNA against JMJD3, SEQ ID NO: 4 (nucleic acid)
chain: ACACCAGCAGTAGCAACAGCAATAGTGAAGCCACAGATGTATTGCTGTTGCTACTGCTGGTGG
[5]
  in vivo growth of transplanted T-ALL cells: significant growth disadvantage
